Data from the supplement of paper PMC4862054.
Values joined by “and” are separate entries in the source; they are usually repeats but may differ in a detail not shown here. Equal values may be shown once.

Experiments:
Details in all cases: incubation time: 72 h
[1] = test system: Hs578T; assay: normalised response (% of control), CellTiter-Glo; higher = more viable cells (100 = DMSO, 0 = benzethonium chloride kill control)
Experimental: (§1)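 DSRT, 72 h incubation, CellTox Green / CellTiter-Glo readout. Signal is normalised to DMSO and benzethonium chloride controls. Value is the normalised response at the highest dose.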

[2] = test system: CAL-85-1; assay: as above
Experimental: as §1

[3] = test system: HCC1143; assay: as above
Experimental: as §1

[4] = test system: HDQ-P1; assay: as above
Experimental: as §1

[5] = test system: SK-BR-3; assay: as above
Experimental: as §1

[6] = test system: HCC1599; assay: as above
Experimental: as §1

[7] = test system: MCF-10A; assay: as above
Experimental: as §1

[8] = test system: MFM-223; assay: as above
Experimental: as §1

[9] = test system: DU-4475; assay: as above
Experimental: as §1

[10] = test system: CAL-120; assay: as above
Experimental: as §1

[11] = test system: MDA-MB-436; assay: as above
Experimental: as §1

[12] = test system: HCC1937; assay: as above
Experimental: as §1

[13] = test system: MDA-MB-468; assay: as above
Experimental: as §1

[14] = test system: CAL-51; assay: as above
Experimental: as §1

[15] = test system: BT-474; assay: as above
Experimental: as §1

[16] = test system: MDA-MB-231; assay: as above
Experimental: as §1

[17] = test system: CAL-148; assay: as above
Experimental: as §1

[18] = test system: MDA-MB-453; assay: as above
Experimental: as §1

[19] = test system: BT-549; assay: as above
Experimental: as §1

[20] = test system: Hs578T; assay: normalised response (% of control), CellTox Green; higher = less cell death (100 = DMSO, 0 = benzethonium chloride kill control)
Procedure, shortened: (§2)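 In 384-well plates holding compound at 5 concentrations in 10-fold steps over a 10,000-fold range specific to each compound, breast cancer cell lines were seeded as 20 µl suspension and incubated 72 h. CellTox Green fluorescence was measured at 485/520 nm, after which CellTiter-Glo luminescence was measured following 10 min at room temperature. Plate signals were normalised to 0.1 % DMSO (100) and a positive kill control (0), and each value is the normalised signal at a single concentration.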

[21] = test system: CAL-85-1; assay: as above
Procedure, shortened: as §2

[22] = test system: HCC1143; assay: as above
Procedure, shortened: as §2

[23] = test system: HDQ-P1; assay: as above
Procedure, shortened: as §2

[24] = test system: HCC1599; assay: as above
Procedure, shortened: as §2

[25] = test system: MCF-10A; assay: as above
Procedure, shortened: as §2

[26] = test system: MFM-223; assay: as above
Procedure, shortened: as §2

[27] = test system: DU-4475; assay: as above
Procedure, shortened: as §2

[28] = test system: CAL-120; assay: as above
Procedure, shortened: as §2

[29] = test system: MDA-MB-436; assay: as above
Procedure, shortened: as §2

[30] = test system: HCC1937; assay: as above
Procedure, shortened: as §2

[31] = test system: MDA-MB-468; assay: as above
Procedure, shortened: as §2

[32] = test system: CAL-51; assay: as above
Procedure, shortened: as §2

[33] = test system: BT-474; assay: as above
Procedure, shortened: as §2

[34] = test system: MDA-MB-231; assay: as above
Procedure, shortened: as §2

[35] = test system: CAL-148; assay: as above
Procedure, shortened: as §2

[36] = test system: MDA-MB-453; assay: as above
Procedure, shortened: as §2

[37] = test system: BT-549; assay: as above
Procedure, shortened: as §2

[38] = test system: CAL-85-1; assay: normalised viability (% of control), CellTiter-Blue; higher = more viable cells (about 100 = DMSO control)
Experimental: (§3)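 DSRT, CellTiter-Blue viability, 72 h incubation. Signal is normalised to DMSO and benzethonium chloride controls. Value is the normalised response at dose 7.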

[39] = test system: HDQ-P1; assay: as above
Experimental: as §3

[40] = test system: DU-4475; assay: as above
Experimental: as §3

[41] = test system: CAL-51; assay: as above
Experimental: as §3

[42] = test system: CAL-148; assay: as above
Experimental: as §3

[43] = test system: MDA-MB-453; assay: as above
Experimental: as §3

[44] = test system: CAL-85-1; assay: as above; remark: listed apart in the source
Experimental: (§4)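 DSRT, CellTiter-Blue viability, 72 h incubation. Signal is normalised to DMSO and benzethonium chloride controls. Value is the normalised response at dose 6.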

[45] = test system: DU-4475; assay: as above; remark: listed apart in the source
Experimental: as §4

[46] = test system: CAL-51; assay: as above; remark: listed apart in the source
Experimental: as §4

[47] = test system: CAL-148; assay: as above; remark: listed apart in the source
Experimental: as §4

[48] = test system: MDA-MB-453; assay: as above; remark: listed apart in the source
Experimental: as §4

Structure (SMILES): CC(C)n1cnc2c(NCCc3ccc(O)cc3)nc(-c3csc4ccccc34)nc21 [StemRegenin 1] (10000 nM)
- normalised response [1]: 76.3%
- normalised response [2]: 78.2%
- normalised response [3]: 93.6%
- normalised response [4]: 76.9%
- normalised response [5]: 68.3%
- normalised response [6]: 61.6%
- normalised response [7]: 97.7%
- normalised response [8]: 59.2%
- normalised response [9]: 89.3%
- normalised response [10]: 89.2%
- normalised response [11]: 74%
- normalised response [12]: 58.9%
- normalised response [13]: 47.5%
- normalised response [14]: 107%
- normalised response [15]: 71.4%
- normalised response [16]: 85.3%
- normalised response [17]: 102%
- normalised response [18]: 76.1%
- normalised response [19]: 76.4%
- normalised response [20]: -20%
- normalised response [21]: 78.5%
- normalised response [22]: 70.8%
- normalised response [23]: 84.8%
- normalised response [24]: 102%
- normalised response [25]: 118%
- normalised response [26]: 28.5%
- normalised response [27]: 98.1%
- normalised response [28]: 103%
- normalised response [29]: 103%
- normalised response [30]: 91.1%
- normalised response [31]: 130%
- normalised response [32]: 122%
- normalised response [33]: 85.5%
- normalised response [34]: 100%
- normalised response [35]: 104%
- normalised response [36]: 87.5%
- normalised response [37]: 94.6%

Structure (SMILES): CCN(CC)CCCC(C)Nc1ccnc2cc(Cl)ccc12 (stereo not drawn) [Chloroquine] (99 nM)
- normalised viability [38]: 81.9%
- normalised viability [39]: 132%
- normalised viability [40]: 110%
- normalised viability [41]: 91%
- normalised viability [42]: 99.1%
- normalised viability [43]: 99.7%

Structure (SMILES): COc1c2occc2cc2ccc(=O)oc12 [Methoxsalen] (1000 nM)
- normalised viability [38]: 104%
- normalised viability [39]: 96.9%
- normalised viability [40]: 112%
- normalised viability [41]: 100%
- normalised viability [42]: 106%
- normalised viability [43]: 97.9%

Structure (SMILES): C=CCN(/C=C1/C(=O)O[C@H](COC)[C@@]2(C)C1=C(O)C(=O)C1=C2[C@H](OC(C)=O)C[C@]2(C)C(=O)CC[C@@H]12)CC=C [PX-866] (1000 nM)
- normalised viability [38]: 95%
- normalised viability [39]: 86.3%
- normalised viability [40]: 102%
- normalised viability [41]: 112%
- normalised viability [42]: 99.4%
- normalised viability [43]: 101%

Structure (SMILES): CC1(COc2ccc3c(c2)ncn3-c2ccc3cccc(N4CCC(N)CC4)c3n2)COC1 [Crenolanib] (10000 nM)
- normalised response [1]: 27.5%
- normalised response [2]: 1.52%
- normalised response [3]: 75.8%
- normalised response [4]: 13.9%
- normalised response [5]: 2.13%
- normalised response [6]: 60.6%
- normalised response [7]: 10.4%
- normalised response [8]: 61.4%
- normalised response [9]: 25%
- normalised response [10]: 52.4%
- normalised response [11]: 7.1%
- normalised response [12]: 52.4%
- normalised response [13]: 12.9%
- normalised response [14]: 7.22%
- normalised response [15]: 3.8%
- normalised response [16]: 0.75%
- normalised response [17]: 8.15%
- normalised response [18]: 15.6%
- normalised response [19]: 20.6%
- normalised response [20]: 103%
- normalised response [21]: -25.9%
- normalised response [22]: 55.7%
- normalised response [23]: 39.2%
- normalised response [24]: 81.5%
- normalised response [25]: -4.14%
- normalised response [26]: 93.4%
- normalised response [27]: 63.6%
- normalised response [28]: 74.8%
- normalised response [29]: 36.1%
- normalised response [30]: 87.1%
- normalised response [31]: 131%
- normalised response [32]: 30.6%
- normalised response [33]: 17.5%
- normalised response [34]: -59%
- normalised response [35]: -15.7%
- normalised response [36]: 78.5%
- normalised response [37]: 28.9%

Structure (SMILES): CCN(CC)CCCC(C)Nc1ccnc2cc(Cl)ccc12 (stereo not drawn) [Chloroquine] (100000 nM)
- normalised response [1]: 0.3%
- normalised response [2]: 0.53%
- normalised response [3]: 22.8%
- normalised response [4]: 0.97%
- normalised response [5]: 0.25%
- normalised response [6]: 0.3%
- normalised response [7]: 1.88%
- normalised response [8]: 0.63%
- normalised response [9]: 0.38%
- normalised response [10]: 7.89%
- normalised response [11]: 1.76%
- normalised response [12]: 3.72%
- normalised response [13]: 1.06%
- normalised response [14]: 1.42%
- normalised response [15]: 2.13%
- normalised response [16]: 0.24%
- normalised response [17]: 0.47%
- normalised response [18]: 0.26%
- normalised response [19]: 0.71%
- normalised response [20]: -118%
- normalised response [21]: -51.4%
- normalised response [22]: 67.2%
- normalised response [23]: 23%
- normalised response [24]: 57%
- normalised response [25]: -62.8%
- normalised response [26]: 0.04%
- normalised response [27]: 48.9%
- normalised response [28]: 8.39%
- normalised response [29]: 42.2%
- normalised response [30]: 18.7%
- normalised response [31]: -27.6%
- normalised response [32]: 28.5%
- normalised response [33]: -2.97%
- normalised response [34]: -46.1%
- normalised response [35]: 24.9%
- normalised response [36]: 1.49%
- normalised response [37]: 30.4%

Structure (SMILES): CN(Cc1cnc2nc(N)nc(N)c2n1)c1ccc(C(=O)N[C@@H](CCC(=O)O)C(=O)O)cc1 [Methotrexate] (1000 nM)
- normalised viability [38]: 57.4%
- normalised viability [39]: 77.6%
- normalised viability [40]: 110%
- normalised viability [41]: 42.5%
- normalised viability [42]: 67.8%
- normalised viability [43]: 84.2%

Structure (SMILES): CC[C@H](CO)Nc1nc(NCc2ccccc2)c2ncn(C(C)C)c2n1 [Seliciclib] (10000 nM)
- normalised response [1]: 96.4%
- normalised response [2]: 83.9%
- normalised response [3]: 96.3%
- normalised response [4]: 84.4%
- normalised response [5]: 86.2%
- normalised response [6]: 95.9%
- normalised response [7]: 95.9%
- normalised response [8]: 89%
- normalised response [9]: 97.7%
- normalised response [10]: 92%
- normalised response [11]: 79.9%
- normalised response [12]: 92.4%
- normalised response [13]: 87.1%
- normalised response [14]: 78.7%
- normalised response [15]: 82.1%
- normalised response [16]: 81.1%
- normalised response [17]: 117%
- normalised response [18]: 132%
- normalised response [19]: 80.1%
- normalised response [20]: 84.9%
- normalised response [21]: 62.7%
- normalised response [22]: 84.5%
- normalised response [23]: 106%
- normalised response [24]: 110%
- normalised response [25]: 108%
- normalised response [26]: 68.6%
- normalised response [27]: 105%
- normalised response [28]: 97.2%
- normalised response [29]: 91.4%
- normalised response [30]: 105%
- normalised response [31]: 154%
- normalised response [32]: 99.4%
- normalised response [33]: 100%
- normalised response [34]: 108%
- normalised response [35]: 95.6%
- normalised response [36]: 108%
- normalised response [37]: 91.5%

Structure (SMILES): O=C(CCCCCCC(=O)Nc1ccccc1)NO [Vorinostat] (300 nM)
- normalised viability [44]: 95.3% and 104%
- normalised viability [45]: 97.4% and 88.9%
- normalised viability [46]: 116% and 104%
- normalised viability [47]: 85.6% and 94.9%
- normalised viability [48]: 82.8% and 81.7%

Structure (SMILES): CC[C@H](CO)Nc1nc(NCc2ccccc2)c2ncn(C(C)C)c2n1 [Roscovitine] (1000 nM)
- normalised viability [38]: 87.8%
- normalised viability [39]: 104%
- normalised viability [40]: 101%
- normalised viability [41]: 105%
- normalised viability [42]: 92.1%
- normalised viability [43]: 96.2%
